Experimental data: ChEMBL document CHEMBL3046496, “Hydrolysis and Phytotoxic Activity ofN-Aryl-3,4,5,6-tetrahydroisophthalimides” (Biosci Biotechnol Biochem, 1993)

How the values were obtained:
Assay type in all cases: ADME, organism-based
[1] = Drug hydrolysis in culture medium of Echinochloa esculenta assessed as compound degradation measured at zero period in culture experiment by HPLC method; settings: read-out: Drug degradation
[2] = Half life in culture medium of Echinochloa esculenta after 7 days by HPLC method
[3] = system: Scenedesmus acutus; experiment: Phytotoxic activity against Scenedesmus acutus assessed as protoporphyrin-IX accumulation at 1 uM incubated for 1 hr; settings: in vivo

Work on O=C1O/C(=N\c2ccc(Cl)cc2F)C2=C1CCCC2 yielded a degraded [1] of 68%.
C#CCOc1cc(/N=C2\OC(=O)C3=C2CCCC3)c(F)cc1Cl showed a degraded [1] of 32% and a half-life [2] of 14.4 h.
With O=C1O/C(=N\c2ccc(Cl)cc2)C2=C1CCCC2 the degraded [1] was 10%, the half-life [2] was 19.2 h and the Activity [3] was 54.7 nmol/mL.
For O=C(O)C1=C(C(=O)Nc2ccc(Cl)cc2)CCCC1, the Activity [3] was 17.6 nmol/mL.
For Cc1cc(Cl)ccc1/N=C1\OC(=O)C2=C1CCCC2, the degraded [1] was 33% and the half-life [2] was 7.2 h.
O=C1C2=C(CCCC2)C(=O)N1c1ccc(Cl)cc1 [CHLOROPHTHALIUM] showed an Activity [3] of 68.2 nmol/mL.
O=C1O/C(=N\c2ccc(OCc3ccc(Cl)cc3)cc2)C2=C1CCCC2 showed a degraded [1] of 5% and a half-life [2] of 57.6 h.
